# In US11214540B2, “Compositions for treating neurodegenerative diseases” (COGNITION THERAPEUTICS, INC., priority 2017, dated 2022):
# Experiments:
# [1] = molecular target: Sigma-1 receptors on Jurkat cell membranes (Homo sapiens (Human), UniProt Q99720); assay: Competitive Radioligand Binding Assay 1, Sigma-1 binding ([3H](+)pentazocine displacement); details: sigma-1 receptor affinity; read-out: S1 Ki
# Protocol: Certain compounds were tested for interaction with several receptors by blocking the binding or action of their agonists or antagonists. Some compounds were tested to see whether they interact directly with known cellular receptor or signaling proteins. Compounds can be tested for the ability to displace binding of known agonists or antagonists of a given human receptor that was overexpressed in cell lines or isolated from tissue. Compounds can also be tested for the ability to block downstream signaling induced by agonists or antagonists of a given human receptor. Compounds can be tested for action at 100 known receptors, and it is desirable that specific activity will occur at only a small subset of CNS-relevant receptors.
# For Sigma-1 binding, various concentrations of test compounds from 100 μM to 1 nM were used to displace 8 nM [3H](+)pentazocine from endogenous receptors on Jurkat cell membranes (Ganapathy M E et al. 1991, J Pharmacol. Exp. Ther. 289:251-260). 10 μM Haloperidol was used to define non-specific binding. […] (Bowen W D, et al. 1993, Mol. Neuropharmcol 3:117-126). 10 μM Haloperidol was used to define non-specific binding. Reactions were terminated by rapid filtration through Whatman GF/C filters using a Brandel 12R cell harvester followed by two washes with ice-cold buffer. Radioactivity on the dried filter discs was measured using a liquid scintillation analyzer (Tri-Carb 2900TR; PerkinElmer Life and Analytical Sciences). The displacement curves were plotted and the Ki values of the test compounds for the receptor subtypes were determined using GraphPad Prism (GraphPad Software Inc., San Diego, Calif.). The percentage specific binding was determined by dividing the difference between total bound (disintegrations per minute) and nonspecific bound (disintegrations per minute) by the total bound (disintegrations per minute). […]
# [2] = molecular target: Sigma-2 receptors on membranes from rat cerebral cortex (Rattus norvegicus (Rat), UniProt Q5U3Y7); assay: Competitive Radioligand Binding Assay 1, Sigma-2 binding ([3H]DTG displacement with (+)pentazocine mask); details: sigma-2 receptor affinity; read-out: S2 Ki
# Protocol: Using the same protocol, some compounds for which membrane trafficking data are given in Table 1 were tested for recognition of sigma-2 receptor. Certain compounds preferentially bind to the sigma-2 receptor.
# For Sigma-1 binding, various concentrations of test compounds from 100 μM to 1 nM were used to displace 8 nM [3H](+)pentazocine from endogenous receptors on Jurkat cell membranes (Ganapathy M E et al. 1991, J Pharmacol. Exp. Ther. 289:251-260). 10 μM Haloperidol was used to define non-specific binding. […] (Bowen W D, et al. 1993, Mol. Neuropharmcol 3:117-126). 10 μM Haloperidol was used to define non-specific binding. Reactions were terminated by rapid filtration through Whatman GF/C filters using a Brandel 12R cell harvester followed by two washes with ice-cold buffer. Radioactivity on the dried filter discs was measured using a liquid scintillation analyzer (Tri-Carb 2900TR; PerkinElmer Life and Analytical Sciences). The displacement curves were plotted and the Ki values of the test compounds for the receptor subtypes were determined using GraphPad Prism (GraphPad Software Inc., San Diego, Calif.). The percentage specific binding was determined by dividing the difference between total bound (disintegrations per minute) and nonspecific bound (disintegrations per minute) by the total bound (disintegrations per minute).
# Affinities for Sigma-1 and Sigma-2 receptors are typically obtained from published studies using cerebral tissue homogenates with [3H](+)pentazocine to measure displacement from Sigma-1 receptors and [3H] 1,3-Di-(2-tolyl)guanidine in the presence of 300 nM (+)pentazocine to measure displacement from Sigma-2 receptors.
# potassium channel hERG = potassium channel hERG (Homo sapiens (Human), UniProt Q12809); assay: In vitro testing for hERG inhibition; format: biochemical; details: in vitro toxicity potassium channel hERG
# Protocol: In vitro testing for hERG inhibition was performed in a standard assay (See: Haverkamp W, Breithardt G, Carnm A J, Janse M J, Rosen M R, Antzelevitch C, Escande D, Franz M, Malik M, Moss A and Shah R. (2000) Eur Heat J 21 (15); 1216-31).
# log P = format: physicochemical
# Outline: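 Ratio of un-ionized compound concentrations between octanol and water, with aqueous pH set so the un-ionized form predominates. Value given as the log of the octanol/water ratio.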
# [3] = system: Abeta oligomer-induced membrane trafficking deficits in primary hippocampal neurons; assay: Membrane Trafficking/Exocytosis (MTT) assay, Abeta oligomer effect on neurons; format: cell-based, rat; details: membrane trafficking; read-out: EC50 Abeta;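 note: compound potency for inhibiting the Abeta oligomer effect on exocytosis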
# Protocol: Compounds according to any embodiment described herein, were tested for their ability to inhibit an amyloid beta effect on the cells. The compounds generally were able to inhibit the amyloid beta effect as measured by a membrane trafficking/exocytosis assay (MTT assay). The rationale for this assay was as follows:
# The present exocytosis assay was adapted for use with mature primary neuronal cultures grown for 3 weeks in vitro. See WO 2011/106785, which is incorporated herein by reference in its entirety. Abeta oligomers cause a dose-dependent decrease in the amount of intracellular vesicles (puncta) filled with reduced purple formazan as measured via image processing using a Cellomics VTI automated microscopy system. […] Increasing the amount of Abeta oligomers eventually results in overt toxicity. Thus, the concentration of neuroactive Abeta oligomers used in the assay is much lower than that causing cell death. […] When configured in this manner, the assay is able to detect compounds that inhibit nonlethal effects of Abeta oligomer whether these compounds act via disruption of oligomers, inhibition of oligomer binding to neurons, or counteraction of signal transduction mechanisms of action initiated by oligomer binding.
# Primary hippocampal neurons from E18 Sprague-Dawley rat embryos were plated at optimized concentrations in 384 well plates in NB media (Invitrogen). Neurons were maintained in cultures for 3 weeks, with twice weekly feeding of NB media with N2 supplement (Invitrogen).
# A test compound was added to cells at concentrations ranging from 100 uM to 0.001 nM followed by addition of vehicle or Abeta oligomer preparations (3 μM total Abeta protein concentration), and incubated for 1 to 24 hr at 37° C. in 5% CO2. MTT reagent (3-(4,5-dimethylthizaol-2yl)-2,5diphenyl tetrazolium bromide) (Roche Molecular Biochemicals) was reconstituted in phosphate buffered saline to 5 mg/mL. 10 μL of MTT labeling reagent is added to each well and incubated at 37° C. for 1 h, then imaged. Exocytosis was assessed by automated microscopy and image processing to quantify the amount of endocytosed and exocytosed formazan.
# Each assay plate was formatted so that compounds are tested with and without Abeta oligomer on each plate. This design eliminates toxic or metabolically active compounds early on in the screening cascade (at the level of the primary screen). Reduced formazan was first visible in intracellular vesicles. Eventual formazan exocytosis was accelerated via Abeta oligomers.
# Human amyloid peptide 1-42 was obtained from a number of commercial vendors such as California Peptide, with lot-choice contingent upon quality control analysis. Quality controls of oligomer preparations consist of Westerns to determine oligomer size ranges and relative concentrations, and the MTT assay to confirm exocytosis acceleration without toxicity. Toxicity was monitored in each image-based assay via quantification of nuclear morphology visualized with the DNA binding blue dye DAPI (Invitrogen). Nuclei that are fragmented are considered to be in late stage apoptosis (Majno and Joris '95) and the test would be rejected. Peptide lots producing unusual peptide size ranges or significant toxicity at a standard 1.5 μM concentration on neurons would also be rejected.
# Data handling and analysis were accomplished by Cellomics VTI image analysis software and STORE automated database software. Because of the low dynamic range and neuronal well-to-well variability after three weeks in culture, statistical comparisons are made via pairwise Tukey-Kramer analysis to determine the significance of the separation between compound+Abeta oligomers from Abeta alone, and between compound alone from vehicle. The ability of mature primary neurons to more closely approximate the electrophysiologically mediated signal transduction network of the adult brain justifies this screening strategy. […]
# Sequence of Sigma-2 receptors on membranes from rat cerebral cortex (Q5U3Y7 whole entry): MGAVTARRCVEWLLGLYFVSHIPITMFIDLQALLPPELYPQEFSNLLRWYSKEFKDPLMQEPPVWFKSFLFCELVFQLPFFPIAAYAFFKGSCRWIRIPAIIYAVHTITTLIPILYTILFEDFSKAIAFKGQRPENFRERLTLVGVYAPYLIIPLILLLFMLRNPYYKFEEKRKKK
# Sequence of Sigma-1 receptors on Jurkat cell membranes (Q99720 whole entry): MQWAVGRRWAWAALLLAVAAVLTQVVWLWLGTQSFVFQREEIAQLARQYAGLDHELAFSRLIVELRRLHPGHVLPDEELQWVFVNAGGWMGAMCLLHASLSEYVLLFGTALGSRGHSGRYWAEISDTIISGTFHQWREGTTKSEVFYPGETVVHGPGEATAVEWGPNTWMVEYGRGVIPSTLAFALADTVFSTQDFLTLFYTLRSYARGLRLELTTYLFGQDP
# Sequence of potassium channel hERG (Q12809 whole entry): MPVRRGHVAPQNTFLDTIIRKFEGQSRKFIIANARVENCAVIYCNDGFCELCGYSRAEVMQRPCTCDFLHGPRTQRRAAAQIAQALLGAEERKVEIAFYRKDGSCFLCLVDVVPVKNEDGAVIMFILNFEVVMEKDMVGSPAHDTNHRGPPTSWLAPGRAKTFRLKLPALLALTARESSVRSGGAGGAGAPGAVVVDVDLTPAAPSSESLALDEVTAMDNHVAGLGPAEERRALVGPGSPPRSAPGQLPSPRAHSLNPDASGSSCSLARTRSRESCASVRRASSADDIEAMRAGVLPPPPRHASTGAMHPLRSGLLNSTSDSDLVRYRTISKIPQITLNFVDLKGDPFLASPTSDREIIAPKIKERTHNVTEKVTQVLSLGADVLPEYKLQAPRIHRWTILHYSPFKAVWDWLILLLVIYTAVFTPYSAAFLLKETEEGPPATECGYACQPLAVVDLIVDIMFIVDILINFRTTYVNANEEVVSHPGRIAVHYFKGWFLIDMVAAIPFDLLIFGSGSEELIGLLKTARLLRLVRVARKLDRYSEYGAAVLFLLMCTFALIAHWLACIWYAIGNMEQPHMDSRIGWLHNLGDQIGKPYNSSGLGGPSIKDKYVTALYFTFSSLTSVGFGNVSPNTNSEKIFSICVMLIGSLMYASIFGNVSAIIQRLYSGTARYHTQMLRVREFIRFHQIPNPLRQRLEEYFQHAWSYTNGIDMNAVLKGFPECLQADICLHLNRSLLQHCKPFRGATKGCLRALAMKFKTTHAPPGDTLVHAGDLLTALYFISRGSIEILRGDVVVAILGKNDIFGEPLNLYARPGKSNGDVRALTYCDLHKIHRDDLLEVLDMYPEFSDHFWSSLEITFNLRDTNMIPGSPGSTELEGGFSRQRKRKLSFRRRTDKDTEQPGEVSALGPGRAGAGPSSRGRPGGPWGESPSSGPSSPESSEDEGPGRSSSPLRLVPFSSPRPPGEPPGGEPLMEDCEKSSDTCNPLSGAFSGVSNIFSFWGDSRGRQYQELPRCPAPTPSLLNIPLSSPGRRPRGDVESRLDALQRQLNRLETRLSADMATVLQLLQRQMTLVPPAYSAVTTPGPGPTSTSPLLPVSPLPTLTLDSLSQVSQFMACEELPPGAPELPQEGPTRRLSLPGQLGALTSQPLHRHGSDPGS
Compound,Ki [1] [nM],Ki [2] [nM],IC50 (potassium channel hERG) [nM],log P (log P),EC50 [3] [nM]
CC(C)(CCN1CCC(C2CCOCC2)CC1)c1ccc(C(F)(F)F)cc1 [Compound 1],0.7,0.2,740,5.16,–
CC(CC(C)(C)c1ccc(C(F)(F)F)cc1)N1CCC(CCO)CC1 (stereo not shown) [Compound 2],0.9,0.6,9200,4.67,> 15000
COCCCC1CCN(CCC(C)(C)c2ccc(C(F)(F)F)cc2)CC1 [Compound 4],0.5,0.8,2200,5.35,–
COC1CCN(C(C)CC(C)(C)c2ccc(C(F)(F)F)cc2)CC1 (stereo not shown) [Compound 6],0.3,1,750,4.49,> 15000
CC(C)(CCN1CCC(O)CC1)c1ccc(Cl)cc1 [Compound 8],0.4,1.6,14000,3.16,250
COC1CCN(CCC(C)(C)c2ccc(Cl)cc2)CC1 [Compound 10],0.7,2.1,11000,3.8,1260
CCC(C)(O)CCNC(C)CC(C)(C)c1ccc(C(F)(F)F)cc1 (stereo not shown) [Compound 12],1,2.7,970,4.13,–
CC(CC(C)(C)c1ccc(C(F)(F)F)cc1)N1CCC(O)CC1 (stereo not shown) [Compound 13],1,2.9,2500,3.85,–
CC(CC(C)(C)c1ccc(Cl)cc1)N1CCC(CO)CC1 (stereo not shown) [Compound 16],0.8,4.5,840,4.03,–
CC(C)=CC(COc1ccc(F)cc1)N1CCC(O)CC1 (stereo not shown) [Compound 18],2.6,5.6,29000,2.72,250
CC(CC(C)(C)c1ccc(F)cc1)N1CCC(CO)CC1 (stereo not shown) [Compound 19],2.2,6,37000,3.57,< 250
CC(CC(C)(C)c1ccc(Cl)cc1)N1CCC(O)CC1 (stereo not shown) [Compound 20],1,6.1,1700,3.57,–
CC(CC(C)(C)c1ccc(Cl)cc1)N1CCC(C)(O)CC1 (stereo not shown) [Compound 22],1,7,1700,3.85,–
CC(CC(C)(C)c1ccc(F)cc1)N1CCC(O)CC1 (stereo not shown) [Compound 25],2.3,10,4000,3.11,–
COC1CCN(C(C=C(C)C)CC(C)(C)c2ccc(C(F)(F)F)cc2)CC1 (stereo not shown) [Compound 39],25,43,8200,5.49,600
COCCOCCC1CCN(C(C=C(C)C)CC(C)(C)c2ccc(C(F)(F)F)cc2)CC1 (stereo not shown) [Compound 40],170,44,9600,6.28,830
CC(C)=CC(CC(C)(C)c1ccc(C(F)(F)F)cc1)N1CCC(OC(C)C)CC1 (stereo not shown) [Compound 44],260,79,9200,6.27,1400
CC(C)=CC(CC(C)(C)c1ccc(F)cc1)N1CCN(C(=O)OC(C)(C)C)CC1 (stereo not shown) [Compound 47],1910,90,14000,5.55,–
CC(C)=CC(CCc1ccc(C)cc1)N1CCC(C2CCOCC2)CC1 (stereo not shown) [Compound 64],535,268,11000,3.52,–
CC(C)=CC(CCc1ccc(F)cc1)N1CCC(C2CCOCC2)CC1 (stereo not shown) [Compound 65],1200,270,2300,4.13,–
CC(=O)N1CCN(C(C=C(C)C)CC(C)(C)c2ccc(C(F)(F)F)cc2)CC1 (stereo not shown) [Compound 71],62,340,17000,4.61,–
CC(=O)N1CCN(C(C=C(C)C)CC(C)(C)c2ccc(F)cc2)CC1 (stereo not shown) [Compound 81],160,2500,32000,3.87,–
CC(C)=CC(CC(C)(C)c1ccc(F)cc1)N1CCC(CCOC2CCOC2)CC1 (stereo not shown) [Compound 179],430,–,4000,5.49,–
CC(C)=CC(CC(C)(C)c1ccc(C(F)(F)F)cc1)N1CCC(CCOC2CCOC2)CC1 (stereo not shown) [Compound 182],160,–,2600,6.22,–
CC(C)=CC(COc1ccccc1)N1CCC(O)CC1 (stereo not shown) [Compound 184],220,–,62000,2.57,–
CC(C)=CC(COc1ccc(Cl)cc1)N1CCC(O)CC1 (stereo not shown) [Compound 186],42,–,2300,3.18,–
CC(C)=CC(CC(C)(C)c1ccc(C(F)(F)F)cc1)N1CCC2(CC1)OCc1ccccc12 (stereo not shown) [Compound 189],37,–,5700,6.89,–
